Test results reported in ChEMBL document CHEMBL5465560, “Selectivity Literature for EUbOPEN Chemogenomic Library” (2024).
Blank lines part the entries; values can stand above or below the molecule they belong to.

How the values were obtained:
[1] = molecular target: Tyrosine-protein kinase HCK (Homo sapiens) (UniProt P08631); assay: Selectivity interaction (KinaseProfiler screening (Millipore)) EUB0000601a HCK; details: at 3 µM
[2] = molecular target: Ribosomal protein S6 kinase alpha-2 (Homo sapiens) (UniProt Q15349); assay: Selectivity interaction (KinomeScan (DiscoverX)) EUB0001049a RPS6KA2; details: at 1 µM
[3] = molecular target: Mitogen-activated protein kinase kinase kinase kinase 1 (Homo sapiens) (UniProt Q92918); assay: Selectivity interaction (ActivX KiNativ screen (kinase selectivity in THP-1 cell lysates)) EUB0000639a MAP4K1; type: subcellular; details: lysate, at 5 µM
[4] = molecular target: Macrophage-stimulating protein receptor (Homo sapiens, UniProt Q04912); assay: Selectivity interaction (Kinase panel (Invitrogen)) EUB0000639a MST1R; details: at 200 nM
[5] = molecular target: Serine/threonine-protein kinase 26 (Homo sapiens, UniProt Q9P289); assay: Selectivity interaction (ActivX KiNativ screen (kinase selectivity in THP-1 cell lysates)) EUB0000639a STK26; type: subcellular; details: lysate, at 0.01 µM
[6] = molecular target: Dual specificity mitogen-activated protein kinase kinase 2 (Homo sapiens) (UniProt P36507); details: at 10 µM
[7] = molecular target: Mitogen-activated protein kinase 6 (Homo sapiens) (UniProt Q16659); details: at 10 µM
[8] = molecular target: Tyrosine-protein kinase HCK (Homo sapiens) (UniProt P08631); assay: Selectivity interaction (ProQinase) EUB0000171b HCK
[9] = molecular target: Proto-oncogene tyrosine-protein kinase ROS (Homo sapiens) (UniProt P08922); assay: Selectivity interaction (ProQinase) EUB0000171b ROS1
[10] = molecular target: STE20/SPS1-related proline-alanine-rich protein kinase (Homo sapiens) (UniProt Q9UEW8); assay: Selectivity interaction (KinomeScan (DiscoverX)) EUB0000092b STK39; details: at 10 µM
[11] = molecular target: Serine/threonine-protein kinase Nek7 (Homo sapiens) (UniProt Q8TDX7); assay: Selectivity interaction (KinomeScan (DiscoverX)) EUB0000045b NEK7
[12] = molecular target: T1, Cyclin-dependent kinase 11A (Homo sapiens) (UniProt Q9UQ88); assay: Selectivity interaction (KinomeScan (DiscoverX)) EUB0001619a CDK11A; details: at 1 µM
T1 sequence (whole entry): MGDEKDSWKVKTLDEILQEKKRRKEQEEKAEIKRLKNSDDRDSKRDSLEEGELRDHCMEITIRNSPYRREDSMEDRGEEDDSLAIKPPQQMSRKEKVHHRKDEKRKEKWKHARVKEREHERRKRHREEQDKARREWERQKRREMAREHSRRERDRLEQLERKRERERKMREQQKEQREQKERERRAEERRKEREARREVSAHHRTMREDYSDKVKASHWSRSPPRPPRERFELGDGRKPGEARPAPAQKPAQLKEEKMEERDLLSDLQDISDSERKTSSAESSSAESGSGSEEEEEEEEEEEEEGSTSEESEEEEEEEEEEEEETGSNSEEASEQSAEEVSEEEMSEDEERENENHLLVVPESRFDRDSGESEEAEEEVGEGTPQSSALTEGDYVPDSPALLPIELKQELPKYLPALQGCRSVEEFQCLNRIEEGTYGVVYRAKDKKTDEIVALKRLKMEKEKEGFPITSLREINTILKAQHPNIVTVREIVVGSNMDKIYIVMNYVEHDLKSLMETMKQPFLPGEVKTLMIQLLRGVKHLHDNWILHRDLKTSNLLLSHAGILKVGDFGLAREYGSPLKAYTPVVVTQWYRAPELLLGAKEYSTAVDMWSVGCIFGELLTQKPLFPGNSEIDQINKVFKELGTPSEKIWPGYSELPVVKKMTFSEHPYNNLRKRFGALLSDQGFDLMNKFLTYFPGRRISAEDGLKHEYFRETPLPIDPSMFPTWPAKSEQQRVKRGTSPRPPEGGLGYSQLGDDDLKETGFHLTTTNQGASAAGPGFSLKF

[13] = molecular target: T2, Serine/threonine-protein kinase 3 (Homo sapiens) (UniProt Q13188); assay: Selectivity interaction (KinomeScan (DiscoverX)) EUB0001619a STK3; details: at 1 µM
T2 sequence (whole entry): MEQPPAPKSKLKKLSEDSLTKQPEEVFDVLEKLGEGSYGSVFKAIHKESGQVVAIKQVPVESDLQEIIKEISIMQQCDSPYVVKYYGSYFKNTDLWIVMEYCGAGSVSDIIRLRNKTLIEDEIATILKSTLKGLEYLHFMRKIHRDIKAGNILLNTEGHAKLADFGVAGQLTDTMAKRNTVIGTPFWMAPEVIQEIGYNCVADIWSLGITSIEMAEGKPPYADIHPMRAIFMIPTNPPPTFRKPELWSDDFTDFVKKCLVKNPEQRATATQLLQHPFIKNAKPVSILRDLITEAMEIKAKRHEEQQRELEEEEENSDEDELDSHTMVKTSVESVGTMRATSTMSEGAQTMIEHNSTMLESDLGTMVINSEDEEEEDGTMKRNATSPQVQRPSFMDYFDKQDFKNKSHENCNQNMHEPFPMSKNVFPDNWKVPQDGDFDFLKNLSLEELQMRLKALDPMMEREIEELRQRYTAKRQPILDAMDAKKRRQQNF

[14] = molecular target: 5'-AMP-activated protein kinase catalytic subunit alpha-1 (Homo sapiens, UniProt Q13131); assay: Selectivity interaction (ActivX KiNativ screen (ex vivo kinase selectivity in human PBMCs)) EUB0001619a PRKAA1; type: cell-based; details: PBMC, at 1 µM

Sequence of Tyrosine-protein kinase HCK (Homo sapiens) (P08631 2-526 limits assumed): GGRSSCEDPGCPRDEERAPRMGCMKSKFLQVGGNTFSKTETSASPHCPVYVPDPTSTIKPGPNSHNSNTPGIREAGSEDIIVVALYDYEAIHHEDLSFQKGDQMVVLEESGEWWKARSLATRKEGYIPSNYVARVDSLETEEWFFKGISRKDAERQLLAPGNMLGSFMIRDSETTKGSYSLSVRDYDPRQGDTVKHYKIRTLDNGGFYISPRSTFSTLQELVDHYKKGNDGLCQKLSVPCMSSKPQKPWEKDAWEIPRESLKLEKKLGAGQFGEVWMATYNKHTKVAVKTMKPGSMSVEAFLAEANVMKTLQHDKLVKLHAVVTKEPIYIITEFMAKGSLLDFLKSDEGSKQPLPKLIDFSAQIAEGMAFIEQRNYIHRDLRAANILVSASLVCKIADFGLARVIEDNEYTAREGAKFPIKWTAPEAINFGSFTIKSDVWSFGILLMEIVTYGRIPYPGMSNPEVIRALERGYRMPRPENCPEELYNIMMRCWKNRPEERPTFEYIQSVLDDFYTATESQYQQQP
Sequence of Proto-oncogene tyrosine-protein kinase ROS (Homo sapiens) (P08922 whole entry): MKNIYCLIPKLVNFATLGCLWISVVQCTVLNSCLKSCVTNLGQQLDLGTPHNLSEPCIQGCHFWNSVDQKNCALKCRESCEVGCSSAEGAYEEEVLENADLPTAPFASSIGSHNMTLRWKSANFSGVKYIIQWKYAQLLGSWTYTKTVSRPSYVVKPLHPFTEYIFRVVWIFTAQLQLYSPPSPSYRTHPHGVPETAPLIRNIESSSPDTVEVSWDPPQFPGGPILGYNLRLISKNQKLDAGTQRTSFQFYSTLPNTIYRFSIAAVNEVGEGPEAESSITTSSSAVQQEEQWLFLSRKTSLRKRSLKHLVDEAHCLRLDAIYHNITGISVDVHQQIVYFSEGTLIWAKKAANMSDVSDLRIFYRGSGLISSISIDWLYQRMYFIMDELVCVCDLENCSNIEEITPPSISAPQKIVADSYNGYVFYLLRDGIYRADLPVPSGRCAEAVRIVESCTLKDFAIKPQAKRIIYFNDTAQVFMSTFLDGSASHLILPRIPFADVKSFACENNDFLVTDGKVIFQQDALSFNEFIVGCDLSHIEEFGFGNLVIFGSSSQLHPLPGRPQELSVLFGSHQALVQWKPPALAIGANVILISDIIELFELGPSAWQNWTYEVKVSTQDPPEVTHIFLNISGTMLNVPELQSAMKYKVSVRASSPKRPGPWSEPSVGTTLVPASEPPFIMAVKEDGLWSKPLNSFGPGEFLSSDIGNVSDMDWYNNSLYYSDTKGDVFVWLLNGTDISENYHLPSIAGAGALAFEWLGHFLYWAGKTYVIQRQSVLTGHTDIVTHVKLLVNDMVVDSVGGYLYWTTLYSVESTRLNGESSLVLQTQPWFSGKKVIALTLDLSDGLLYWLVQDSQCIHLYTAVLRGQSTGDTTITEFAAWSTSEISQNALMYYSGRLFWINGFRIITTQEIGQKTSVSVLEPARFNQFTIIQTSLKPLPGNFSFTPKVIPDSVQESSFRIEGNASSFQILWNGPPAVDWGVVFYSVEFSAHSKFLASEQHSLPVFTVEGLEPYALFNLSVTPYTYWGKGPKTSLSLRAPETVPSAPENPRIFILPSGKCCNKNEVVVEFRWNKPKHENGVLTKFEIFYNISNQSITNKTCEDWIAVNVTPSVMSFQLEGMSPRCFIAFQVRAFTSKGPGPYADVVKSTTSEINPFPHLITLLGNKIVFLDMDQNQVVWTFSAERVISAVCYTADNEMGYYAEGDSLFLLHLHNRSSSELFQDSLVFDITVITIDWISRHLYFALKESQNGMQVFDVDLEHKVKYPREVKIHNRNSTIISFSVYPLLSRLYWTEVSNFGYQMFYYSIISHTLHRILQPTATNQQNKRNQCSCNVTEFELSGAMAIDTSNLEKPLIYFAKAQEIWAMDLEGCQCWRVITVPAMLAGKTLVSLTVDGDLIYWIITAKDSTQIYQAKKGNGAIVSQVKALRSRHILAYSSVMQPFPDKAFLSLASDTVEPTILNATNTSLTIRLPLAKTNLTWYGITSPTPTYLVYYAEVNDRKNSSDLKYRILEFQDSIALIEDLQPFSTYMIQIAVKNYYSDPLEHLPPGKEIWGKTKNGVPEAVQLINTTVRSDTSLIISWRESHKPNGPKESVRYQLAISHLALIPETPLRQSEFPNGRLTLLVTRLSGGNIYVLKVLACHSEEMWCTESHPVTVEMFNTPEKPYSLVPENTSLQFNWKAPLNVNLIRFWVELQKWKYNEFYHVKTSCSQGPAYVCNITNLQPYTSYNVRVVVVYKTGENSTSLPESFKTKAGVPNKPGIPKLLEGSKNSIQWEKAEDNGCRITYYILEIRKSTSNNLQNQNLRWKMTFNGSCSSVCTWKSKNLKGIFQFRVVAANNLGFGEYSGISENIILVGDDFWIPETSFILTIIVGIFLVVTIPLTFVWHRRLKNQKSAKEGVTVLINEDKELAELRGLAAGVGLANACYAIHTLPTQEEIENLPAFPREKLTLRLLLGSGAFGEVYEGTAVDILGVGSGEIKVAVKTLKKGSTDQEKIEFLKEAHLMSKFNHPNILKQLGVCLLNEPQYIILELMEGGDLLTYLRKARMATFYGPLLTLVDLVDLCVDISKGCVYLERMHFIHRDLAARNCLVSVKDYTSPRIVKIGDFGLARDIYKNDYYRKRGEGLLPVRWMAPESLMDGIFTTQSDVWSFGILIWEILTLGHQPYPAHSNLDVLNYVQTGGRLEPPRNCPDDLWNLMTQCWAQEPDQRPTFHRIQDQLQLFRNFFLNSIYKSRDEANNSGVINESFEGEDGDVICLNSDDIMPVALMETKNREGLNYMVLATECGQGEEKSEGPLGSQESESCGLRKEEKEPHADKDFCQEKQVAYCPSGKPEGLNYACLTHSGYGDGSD
Sequence of Serine/threonine-protein kinase Nek7 (Homo sapiens) (Q8TDX7 whole entry, looked up): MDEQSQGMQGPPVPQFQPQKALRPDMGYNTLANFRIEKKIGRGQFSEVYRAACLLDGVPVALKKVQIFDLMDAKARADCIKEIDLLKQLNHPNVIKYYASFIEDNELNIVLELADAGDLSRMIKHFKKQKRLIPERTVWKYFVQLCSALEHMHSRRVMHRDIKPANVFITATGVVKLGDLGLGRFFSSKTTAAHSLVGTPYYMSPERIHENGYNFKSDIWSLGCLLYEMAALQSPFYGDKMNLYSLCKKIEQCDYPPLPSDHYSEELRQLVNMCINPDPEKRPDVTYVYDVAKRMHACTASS
Sequence of Macrophage-stimulating protein receptor (Q04912 25-304 limits assumed): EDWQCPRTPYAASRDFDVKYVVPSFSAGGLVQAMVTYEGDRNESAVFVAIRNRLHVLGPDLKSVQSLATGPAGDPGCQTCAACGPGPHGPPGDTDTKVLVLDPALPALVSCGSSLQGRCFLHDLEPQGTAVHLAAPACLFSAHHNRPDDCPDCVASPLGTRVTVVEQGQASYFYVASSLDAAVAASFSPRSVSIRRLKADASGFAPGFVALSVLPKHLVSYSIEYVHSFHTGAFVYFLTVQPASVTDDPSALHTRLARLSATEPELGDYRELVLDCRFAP
Sequence of Macrophage-stimulating protein receptor (Q04912 310-1400 limits assumed): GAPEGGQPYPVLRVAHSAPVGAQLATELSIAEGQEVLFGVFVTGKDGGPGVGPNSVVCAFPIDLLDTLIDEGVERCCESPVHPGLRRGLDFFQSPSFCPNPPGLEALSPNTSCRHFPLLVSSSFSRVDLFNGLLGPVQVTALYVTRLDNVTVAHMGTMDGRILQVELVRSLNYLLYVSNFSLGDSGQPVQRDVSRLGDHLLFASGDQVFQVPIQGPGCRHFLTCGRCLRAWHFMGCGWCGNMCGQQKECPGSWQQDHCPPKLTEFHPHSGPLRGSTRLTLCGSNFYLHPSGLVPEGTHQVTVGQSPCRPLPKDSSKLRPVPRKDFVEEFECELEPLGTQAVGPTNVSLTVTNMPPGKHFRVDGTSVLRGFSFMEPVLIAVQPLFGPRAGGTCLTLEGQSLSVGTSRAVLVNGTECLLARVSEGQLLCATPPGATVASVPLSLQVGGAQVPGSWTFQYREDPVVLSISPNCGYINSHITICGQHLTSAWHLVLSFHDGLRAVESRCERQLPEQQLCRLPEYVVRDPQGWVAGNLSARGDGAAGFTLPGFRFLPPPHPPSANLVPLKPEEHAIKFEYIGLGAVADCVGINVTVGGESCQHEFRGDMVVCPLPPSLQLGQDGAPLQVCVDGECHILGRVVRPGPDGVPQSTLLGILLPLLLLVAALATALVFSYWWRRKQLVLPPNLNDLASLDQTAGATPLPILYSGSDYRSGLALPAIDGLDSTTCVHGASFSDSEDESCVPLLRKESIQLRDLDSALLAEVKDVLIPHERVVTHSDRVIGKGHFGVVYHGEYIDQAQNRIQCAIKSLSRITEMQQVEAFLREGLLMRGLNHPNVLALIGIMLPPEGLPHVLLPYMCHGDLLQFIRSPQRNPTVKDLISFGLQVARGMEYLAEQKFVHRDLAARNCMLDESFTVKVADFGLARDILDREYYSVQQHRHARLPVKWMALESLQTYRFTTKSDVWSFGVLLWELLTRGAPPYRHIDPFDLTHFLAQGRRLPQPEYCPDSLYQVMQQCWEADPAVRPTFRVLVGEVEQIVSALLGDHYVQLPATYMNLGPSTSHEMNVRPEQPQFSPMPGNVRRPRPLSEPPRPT
Sequence of Dual specificity mitogen-activated protein kinase kinase 2 (Homo sapiens) (P36507 whole entry): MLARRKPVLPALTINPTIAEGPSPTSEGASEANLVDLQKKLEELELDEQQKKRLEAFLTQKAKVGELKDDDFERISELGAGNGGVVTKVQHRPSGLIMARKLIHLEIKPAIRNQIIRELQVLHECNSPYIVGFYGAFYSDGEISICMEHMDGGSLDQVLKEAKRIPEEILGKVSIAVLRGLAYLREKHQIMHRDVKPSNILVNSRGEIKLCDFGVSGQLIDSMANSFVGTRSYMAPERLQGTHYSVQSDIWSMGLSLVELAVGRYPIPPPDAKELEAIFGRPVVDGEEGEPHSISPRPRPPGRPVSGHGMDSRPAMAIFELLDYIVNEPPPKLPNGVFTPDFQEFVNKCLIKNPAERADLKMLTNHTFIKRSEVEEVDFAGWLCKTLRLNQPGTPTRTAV

- % of inhibition [1]: 81%
Structure (SMILES): CCc1cc(Nc2nccc(-c3c(-c4ccc(OC)c(C(=O)Nc5c(F)cccc5F)c4)nc4ccccn34)n2)c(OC)cc1N1CCC(N2CCN(S(C)(=O)=O)CC2)CC1

Structure (SMILES): COc1cc(Nc2nc(C)cc(-c3cnn4nc(OC)ccc34)n2)cc(C(F)(F)F)c1
- % of control [2]: 93%

- % of inhibition [3]: -4.3%
- % of inhibition [4]: 12.6%
- % of inhibition [5]: 19.6%
Structure (SMILES): CC[C@@H]1[C@H](F)C(=O)N[C@@H]1COc1nccc2cc(C(N)=O)c(OC)cc12 [ZIMLOVISERTIB]

- % of control [6]: 100%
- % of control [7]: 100%
Structure (SMILES): CCN(CC)CCCCNc1ncc2cc(-c3cc(OC)cc(OC)c3)c(NC(=O)NC(C)(C)C)nc2n1

- % of control ([8]; at 1 µM): 105%
- % of control ([8]; at 5 µM): 88%
- % of control ([9]; at 1 µM): 87%
- % of control ([9]; at 5 µM): 74%
Structure (SMILES): C=CC(=O)Nc1cccc(C(=O)Nc2ccc(Nc3cc(-c4[nH]c(SC)nc4C)ccn3)cc2)c1

Structure (SMILES): CCC(=O)N1CCN(c2ccc(-n3c(=O)ccc4cnc5ccc(-c6cnc7ccccc7c6)cc5c43)cc2C(F)(F)F)CC1
- % of control [10]: 100%

Structure (SMILES): C=CC(=O)Nc1cc(-n2c(=O)ccc3cnc4ccc(-c5ccc(NS(C)(=O)=O)cc5)cc4c32)ccc1C
- % of control ([11]; at 1 µM): 100%
- % of control ([11]; at 10 µM): 71%

Structure (SMILES): N#Cc1cccc(-c2c[nH]c3ncnc(N4CCOCC4)c23)c1
- % of control [12]: 100%
- % of control [13]: 1.8%
- % of inhibition [14]: 27%
